# Source: patent US6368413B1, “Process for preparing improved sugar product” (Praxair Technology, Inc., priority 2000, dated 2002)
# System: Aerobic Bacteria
# Test: Disinfection of sugar liquor by ozonation, aerobic bacteria count
# Procedure: In the laboratory, tests were performed on refinery liquors at Brix 66 to 70 and color between 60 and 300 Icumsa units (the color of sugar liquors is expressed in Icumsa units following the specific and standardized methodology well known in the sugar industry). A laboratory model generator was used to pass ozone into a batch reactor. The ozone generator was operating on a pure feed gas and it produced 40 g/h of ozone at 5% concentration. Two mixer reactors were used, the first one operating at 800 rpm under a pressure of 60 psig with 2L capacity and the second one operating at atmospheric pressure and 1200 rpm with 10 L capacity. A series of tests were carried out with different types of liquors and the treated sugar was characterized in terms of color, turbidity, pH, saccharose degradation, toxicity and disinfection. The following examples present results of experiments performed in different ozonation conditions with different types of liquors. A 184 Icumsa color units liquor was treated with 200 mg/L of ozone during 8 min using the pressurized reactor. A low color liquor, 64 Icumsa units was treated in the atmospheric pressure reactor under two different ozonation conditions. The following table presents the results of microbiological analyses.
smiles,measurement,setting,value
O=[O+][O-] [ozone],reduction of number of total bacteria after ozonation,"Example 6: 200 mg/L ozone, 8 min",95%
same,reduction of bacteria,Example 7: 200 mg/l ozone,89%
same,disinfection,Example 7: 400 mg/L of ozone,complete disinfection
